Series [1] has as its system HEK293 cells expressing OATP1A2*1, *2, *3. The conditions noted are these: OATP1A2 transfected cells; 100 µmol/L doxorubicin, 72 h; versus DMSO. On the procedure:
(§1) Resazurin-Assay: To determine cell viability, cells were seeded at a density of 10,000 cells/well in 96-well multiplates. […] Afterward, 100 µL from each well was placed in a cavity of a 96-well plate, and the fluorescence was determined on a microplate reader (TECAN infinite M200, Tecan GmbH, Crailsheim, Germany) at an excitation wavelength of 530 nm and an emission wavelength of 590 nm.

The test system of series [2] is breast cancer cell lines MCF-7, MDA-MB-231, ZR-75-1. The experiment in a line: Resazurin cell viability assay in breast cancer cell lines. The conditions noted are these: 100 µmol/L doxorubicin, 72 h, versus DMSO. On the procedure:
as §1
A general note: Alamar Blue is a resazurin reagent that responds to reducing activity.

A further series relates to OATP1A2*2/*3. In words: Doxorubicin uptake clearance by OATP1A2 genetic variants versus wild type. The conditions noted are these: OATP1A2*2 and *3 versus OATP1A2*1. The format is cell-based, human.
Series [3] deals with T1, OCT1 (Homo sapiens, UniProt O15245).
T1 sequence (O15245 1-554): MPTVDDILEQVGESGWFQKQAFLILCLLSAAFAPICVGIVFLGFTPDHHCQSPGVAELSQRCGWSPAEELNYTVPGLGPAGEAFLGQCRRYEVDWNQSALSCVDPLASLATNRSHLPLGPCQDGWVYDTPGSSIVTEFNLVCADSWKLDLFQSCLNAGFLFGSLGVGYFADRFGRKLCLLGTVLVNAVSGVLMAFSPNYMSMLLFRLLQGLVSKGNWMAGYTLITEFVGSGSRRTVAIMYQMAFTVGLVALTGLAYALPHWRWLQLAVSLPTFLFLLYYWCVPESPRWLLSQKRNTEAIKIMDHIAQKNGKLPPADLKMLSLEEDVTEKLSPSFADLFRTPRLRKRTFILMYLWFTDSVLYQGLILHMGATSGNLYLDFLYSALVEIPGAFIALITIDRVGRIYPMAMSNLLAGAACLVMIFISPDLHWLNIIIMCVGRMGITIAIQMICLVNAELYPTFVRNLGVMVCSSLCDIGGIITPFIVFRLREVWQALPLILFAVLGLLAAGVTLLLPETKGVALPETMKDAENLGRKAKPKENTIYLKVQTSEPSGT
The conditions noted are these: MDCKII-OCT1; doxorubicin 0–100 µmol/L; 3 min; mean ± SD.
Method: (§2) Cellular uptake studies: For all transport studies, cells were seeded in 24-well plates and incubated in a full growth medium at an initial density of 200,000 cells/well for 3 days. Before starting each transport experiment, cells were washed with a pre-warmed (37 °C) incubation buffer [64]. […] Protein concentration of whole cell lysate was determined to quantify cell density after each experiment using the BCA assay according to the manufacturer’s instructions (Pierce, Rockford, IL, USA).
(§3) Statistical evaluation: All experiments were performed at least three times unless otherwise noted. The OATP1A2*1–*3 and OCT1-3 net uptake was obtained by subtracting the uptake into wild-type cells from that of the transporter-transfected cells. Km and Vmax were assessed using Prism 5.01 (GraphPad Software, San Diego, CA, USA). The differences in the doxorubcin uptake in OATP1A2*1–*3 and in OCT1-3 transfected cells were adjusted to the membranous transporter protein levels in the whole cell lysate. Km and Vmax are presented as arithmetic means ± standard deviation.

The conditions of series [4]: during chemotherapy, no reference given, cited from earlier work.
The conditions of series [5]: pH 7.4; cited from earlier work.
In the next series the target is T2, OATP1A2*2 (Homo sapiens, UniProt P46721, I13T).
T2 sequence (P46721 1-670 I13T): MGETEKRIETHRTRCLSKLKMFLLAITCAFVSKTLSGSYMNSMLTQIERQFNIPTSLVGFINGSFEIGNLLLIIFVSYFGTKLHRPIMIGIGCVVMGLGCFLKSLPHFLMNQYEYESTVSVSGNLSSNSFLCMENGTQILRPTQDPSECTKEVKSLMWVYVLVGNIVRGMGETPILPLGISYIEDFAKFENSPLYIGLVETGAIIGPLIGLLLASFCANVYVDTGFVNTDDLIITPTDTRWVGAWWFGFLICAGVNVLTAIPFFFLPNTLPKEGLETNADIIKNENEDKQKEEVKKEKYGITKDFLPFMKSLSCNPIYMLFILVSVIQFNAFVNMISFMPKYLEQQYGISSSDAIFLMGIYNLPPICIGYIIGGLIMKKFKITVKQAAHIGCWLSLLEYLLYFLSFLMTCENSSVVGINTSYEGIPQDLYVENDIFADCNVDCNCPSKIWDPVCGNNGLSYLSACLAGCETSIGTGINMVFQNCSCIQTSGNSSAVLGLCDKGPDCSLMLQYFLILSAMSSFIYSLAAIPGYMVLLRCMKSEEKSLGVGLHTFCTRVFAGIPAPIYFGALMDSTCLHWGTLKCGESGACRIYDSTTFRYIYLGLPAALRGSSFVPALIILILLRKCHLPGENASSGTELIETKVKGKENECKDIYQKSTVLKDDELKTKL
In words: in vitro.

The next series addresses T3, OATP1A2*3 (Homo sapiens, UniProt P46721, E172D).
T3 sequence (P46721 1-670 E172D): T2 sequence (P46721 1-670 I13T) with T13I, E172D
The experiment in a line: in vitro.

Series [6] addresses T1, OCT1. In words: in vitro. The conditions noted are these: mdck.
Method: as §2, §3
A further series deals with OATP1A2. The conditions noted are these: transiently transfected HeLa cells, ref 22 (Lee et al.); cited from earlier work.
Series [7] addresses T1, OCT1. As to conditions: OCT1 affinity to doxorubicin; cited from earlier work.
In a further series the test system is OCT6. As to conditions: OCT6 affinity to doxorubicin; cited from earlier work.

Positions count from the first letter of the chain named. Like-named read-outs stand apart in the source and are kept apart here.

A word on the Vmax: it is the rate approached at saturating substrate. A word on the Km: it is the concentration of substrate that gives half-maximal velocity. Broadly, the microsomal CLint is the rate of metabolic loss divided by the concentration. A lower microsomal CLint goes with greater metabolic stability.

Method for OATP1A2*2/*3: as §2
(§4) Protein abundance of OATP1A2*1–*3 and OCT1–3 were measured by mass spectrometry-based targeted proteomics using a validated LC-MS/MS method as recently described [65].
Statistical evaluation: All experiments were performed at least three times unless otherwise noted. The OATP1A2*1–*3 and OCT1-3 net uptake was obtained by subtracting the uptake into wild-type cells from that of the transporter-transfected cells. Km and Vmax were assessed using Prism 5.01 (GraphPad Software, San Diego, CA, USA). […] Km and Vmax are presented as arithmetic means ± standard deviation.
Method for OATP1A2*3: as §2, §4
200 μL of each cell lysate sample was mixed with 25 μL internal standard (5 µg/mL daunorubicin), 25 μL citric acid (1%), and 400 μL ice-cold acetonitrile for protein precipitation. […] The clear supernatant was transferred to HPLC vials. The measurement and quantitative evaluation were carried out using the LC-MS/MS system QTRAP 4000® (AB SCIEX, Darmstadt, Germany) and the Software Analyst® 1.4 (Applied Biosystems, Darmstadt, Germany).
Statistical evaluation: All experiments were performed at least three times unless otherwise noted. The OATP1A2*1–*3 and OCT1-3 net uptake was obtained by subtracting the uptake into wild-type cells from that of the transporter-transfected cells. […]

For `COc1cccc2c1C(=O)c1c(O)c3c(c(O)c1C2=O)C[C@@](O)(C(=O)CO)C[C@@H]3O[C@H]1C[C@H](N)[C@H](O)[C@H](C)O1` [doxorubicin, Doxorubicin], the “cell viability in presence of doxorubicin” value in series [1] and in series [2] was “significantly reduced” throughout. Further, in the series with OATP1A2*2/*3, the “diminished cellular uptake clearance by the genetic variants” value was 51–70%. The Vmax at OCT1 [3] is 19.4 ± 3.78 pmol/mg/min. In addition, the “plasma concentrations of doxorubicin” value in series [4] (conversion of 600 ng/mL) is recorded as ~ 1 µmol/L; in series [4] it was “up to 600 ng/mL”. Also, the “present as cationic moiety” value in series [5] was 89%. Also, the Michaelis constant (Km) at OATP1A2*2 (HEK293 cells stably expressing OATP1A2*2) was 5.84 ± 3.95 µM; at OATP1A2*3 (HEK293 cells stably expressing OATP1A2*3), 5.94 ± 3.07 µM; with OATP1A2, 31.7 µM; on OCT1 [7], approximately 5 µM; in the series with OCT6 it was approximately 5 µM. The intrinsic metabolic clearance (microsomal CLint) on OATP1A2*2 (other cell line) is 1.39 ± 0.65 µL/min/mg; at OATP1A2*3 (other cell line), 2.32 ± 0.99 µL/min/mg. For the same compound, the microsomal CLint at 3 min on OCT1 [6] turned out to be 4.16 ± 1.1 µL/min/mg.
